# Test results taken from patent publication US20050197350A1, “Novel quinoline, tetrahydroquinazoline, and pyrimidine derivatives and methods of treatment related to the use thereof” (TAISHO PHARMACEUTICAL CO., LTD., priority 2003, published 2005).
# Test system: MCH receptors
# Assay: MCH receptor activity class (method not given)
# Conditions: activity class per percent of control at 10^-7 M or IC50
row,SMILES,class
1,CN(C)c1nc(N[C@H]2CC[C@@H](NC(=O)c3cccc(Oc4ccccc4)c3)CC2)nc2c1CCCC2 [compound 1007],1 (Class 1: The value of percent of control at 10^−7 M was less than 40% or the value of IC50 was less than 50 nM.)

# Same assay, conditions: class 1-3 by percent of control at 10^-7 M or IC50
row,SMILES,class
1,CCC(C(=O)N[C@H]1CC[C@@H](Nc2nc3c(c(N(C)C)n2)CCCC3)CC1)c1ccccc1 (relative stereo) [compound 502],3 (Class 3 The value of percent of control at 10^−7 M was more than 60% or the value of IC50 was more than 200 nM.)
2,CCOc1ccccc1C(=O)NC[C@H]1CC[C@@H](Nc2nccc(N(C)C)n2)CC1 [compound 417],3 (Class 3 The value of percent of control at 10^−7 M was more than 60% or the value of IC50 was more than 200 nM.)
3,CN(C)c1nc(N[C@H]2CC[C@@H](CNC(=O)c3cc(F)cc(C(F)(F)F)c3)CC2)nc2c1CCCC2 [compound 600],3 (Class 3 The value of percent of control at 10^−7 M was more than 60% or the value of IC50 was more than 200 nM.)

# Same assay, conditions: class by percent of control at 10^-7 M or IC50
row,SMILES,class
1,CN(C)c1cc(N[C@H]2CC[C@@H](CNC(=O)C(Cc3ccccc3)c3ccccc3)CC2)nc2ccccc12 (relative stereo) [compound 793],3 (Class 3 The value of percent of control at 10^−7 M was more than 60% or the value of IC50 was more than 200 nM.)
2,CN(C)c1ccnc(N[C@H]2CC[C@@H](NC(=O)c3cccc(F)c3)CC2)n1 [compound 323],3 (Class 3 The value of percent of control at 10^−7 M was more than 60% or the value of IC50 was more than 200 nM.)
3,C=CCOc1ccccc1CNC[C@H]1CC[C@@H](Nc2cc(N(C)C)c3ccccc3n2)CC1 [compound 1177],2 (Class 2: The value of percent of control at 10^−7 M was from 40% to 60% or the value of IC′50 was from 50 nM to 200 nM.)
4,CN(C)c1cc(N[C@H]2CC[C@@H](NC(=O)Nc3c(F)cc(Br)cc3Br)CC2)nc2ccccc12 [compound 2101],2 (Class 2: The value of percent of control at 10^−7 M was from 40% to 60% or the value of IC′50 was from 50 nM to 200 nM.)
5,CN(C)c1nc(N[C@H]2CC[C@@H](CNCCCCCCc3ccccc3)CC2)nc2c1CCCC2 [compound 1500],3 (Class 3 The value of percent of control at 10^−7 M was more than 60% or the value of IC50 was more than 200 nM.)

# Same assay, conditions: class by percent of control at 10^−7 M or IC50
row,SMILES,class
1,Cc1cc(N(C)C)nc(NC[C@H]2CC[C@@H](NC(=O)c3ccc(OC(F)(F)F)cc3)CC2)n1 [compound 2742],3 (Class 3 The value of percent of control at 10^−7 M was more than 60% or the value of IC50 was more than 200 nM.)
2,"Cc1cc(N(C)C)nc(NC[C@H]2CC[C@@H](NC(=O)c3ccccc3)CC2)n1 [compound 2732, N-[cis-4-({[4-(dimethylamino)-6-methylpyrimidin-2-yl]amino}methyl)cyclohexyl]benzamide]",3 (Class 3 The value of percent of control at 10^−7 M was more than 60% or the value of IC50 was more than 200 nM.)
3,"Cc1cnc(N[C@H]2CC[C@@H](NC(=O)COc3cccc(Cl)c3)CC2)nc1N(C)C [compound 2879, 2-(3-chlorophenoxy)-N-(cis-4-{[4-(dimethylamino)-5-methylpyrimidin-2-yl]amino}cyclohexyl)acetamide]",1 (Class 1: The value of percent of control at 10^−7 M was less than 40% or the value of IC50 was less than 50 nM.)
4,"Cc1cnc(N[C@H]2CC[C@@H](NC(=O)c3cccc(C#N)c3)CC2)nc1N(C)C [compound 2908, 3-cyano-N-(cis-4-{[4-(dimethylamino)-5-methylpyrimidin-2-yl]amino}cyclohexyl)benzamide]",1 (Class 1: The value of percent of control at 10^−7 M was less than 40% or the value of IC50 was less than 50 nM.)
5,"Cc1cnc(N[C@H]2CC[C@@H](NC(=O)c3cccnc3Oc3cccc(F)c3)CC2)nc1N(C)C [compound 2886, N-(cis-4-{[4-(dimethylamino)-5-methylpyrimidin-2-yl]amino}cyclohexyl)-2-(3-fluorophenoxy)nicotinamide]",1 (Class 1: The value of percent of control at 10^−7 M was less than 40% or the value of IC50 was less than 50 nM.)
